The results in this text go back to patent US12180207B2 (ARRAY BIOPHARMA INC., priority 2018, dated 2024).

Assay [1] has as its target HEK-293 cells transfected with dox-inducible human wild type FGFR1 (Homo sapiens (Human), UniProt P11362). Put plainly: FGFR1 pERK cell assay. In kind it is cell-based. The settings on record: HEK-293 dox-inducible FGFR1, 1 hour compound, 100 ng/ml FGF-acidic; maximum concentration 5 μM. The gist of the method: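 In HEK-293 cells with dox-induced human wild-type FGFR1, compounds (1:3 dilutions, top 5 μM final) were applied 1 h at 37°C before 5 min stimulation with 100 ng/ml FGF-acidic. Phospho-ERK1/2 measured by MSD sandwich immunoassay; IC50 from 4-parameter fit of POC versus vehicle and control compound.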

The target in the next assay is dephosphorylated FGFR2 (Homo sapiens (Human), UniProt P21802). Put plainly: FGFR enzyme binding assay (HTRF tracer displacement), FGFR2. The settings on record: 5 nM dephosphorylated FGFR2, average of multiple determinations if made. The gist of the method:
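Compounds were tested for displacement of a tracer from human FGFR kinase in a time-resolved FRET binding format. After 60 minutes at 22° C, signal was read at two wavelengths and converted to percent of control, normalised between untreated wells and 1 μM reference inhibitor.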
(In general: TR-FRET usually uses a lanthanide donor and a delayed reading to cut background.)

In assay [2] the target is HEK-293 cells transfected with dox-inducible human wild type FGFR2 (Homo sapiens (Human), UniProt P21802). Description: FGFR2 pFGFR cell assay (ELISA). It counts as cell-based. The settings on record: HEK-293 dox-inducible FGFR2, 1 hour compound, 30 ng/ml FGF-acidic. The protocol:
FGFR2 pFGFR Cell Assay: • HEK-293 cells transfected with dox-inducible human wild type FGFR2 (SEQ ID NO: 3) were plated in a collagen or poly-D-lysine coated 96 well flat bottom plates at 4×10^5 cells/well in complete DMEM medium containing 10% FBS and 1 μg/ml doxycycline and allowed to attach for 24 h at 37° C., 5% CO2. Cells were treated with compound using 1:3 serial dilutions with a maximum final concentration of 5 μM. Compound was incubated on cells for 1 hour at 37° C., 5% CO2. Cells were then stimulated with a final concentration of 30 ng/ml human FGF-acidic (R&D Systems Cat number 232-FA/CF) for 5 minutes at 37° C., 5% CO2. Medium was removed and cells were lysed with lysis buffer containing phosphatase and protease inhibitors. Phospho FGFR2 was measured by ELISA (R&D Systems cat. no. DYC684). The ELISA captures total FGFR2 and detects total phospho tyrosine. Optical density was measured for each well using a Versamax reader at a wavelength of 450 nm. 100 POC was determined using no test compounds and 0 POC was determined using a control compound. The POC values were fit to a 4-parameter logistic curve as a function of the concentration of the compound, and the IC50 value is the point where the curve crosses 50 POC.
On the technique in general: An ELISA detects its analyte on a solid surface through an enzyme-linked reagent.

Each structure is given as a SMILES string.

Sequence of HEK-293 cells transfected with dox-inducible human wild type FGFR1 (P11362 22-822): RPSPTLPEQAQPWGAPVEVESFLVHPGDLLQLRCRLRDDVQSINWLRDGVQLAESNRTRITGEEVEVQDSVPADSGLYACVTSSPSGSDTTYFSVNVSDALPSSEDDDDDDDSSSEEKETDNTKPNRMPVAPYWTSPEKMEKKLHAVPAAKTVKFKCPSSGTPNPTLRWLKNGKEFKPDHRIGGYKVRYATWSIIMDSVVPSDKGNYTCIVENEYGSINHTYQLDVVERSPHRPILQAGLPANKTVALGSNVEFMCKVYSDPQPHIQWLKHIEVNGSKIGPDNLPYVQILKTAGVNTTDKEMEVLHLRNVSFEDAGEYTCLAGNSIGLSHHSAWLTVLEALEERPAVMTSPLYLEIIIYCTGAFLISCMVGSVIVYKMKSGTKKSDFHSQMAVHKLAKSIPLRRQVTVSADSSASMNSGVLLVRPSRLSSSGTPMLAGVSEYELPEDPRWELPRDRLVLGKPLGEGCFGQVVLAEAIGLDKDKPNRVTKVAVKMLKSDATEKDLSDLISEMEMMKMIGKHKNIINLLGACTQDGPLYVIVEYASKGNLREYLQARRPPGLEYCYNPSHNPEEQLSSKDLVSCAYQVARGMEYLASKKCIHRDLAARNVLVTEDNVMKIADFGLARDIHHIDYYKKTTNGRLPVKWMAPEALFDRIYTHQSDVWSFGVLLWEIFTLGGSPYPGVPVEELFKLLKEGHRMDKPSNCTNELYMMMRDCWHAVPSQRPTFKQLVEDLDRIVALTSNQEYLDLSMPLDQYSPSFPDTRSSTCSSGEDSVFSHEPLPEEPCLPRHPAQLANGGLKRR
Sequence of HEK-293 cells transfected with dox-inducible human wild type FGFR2 (P21802 22-821): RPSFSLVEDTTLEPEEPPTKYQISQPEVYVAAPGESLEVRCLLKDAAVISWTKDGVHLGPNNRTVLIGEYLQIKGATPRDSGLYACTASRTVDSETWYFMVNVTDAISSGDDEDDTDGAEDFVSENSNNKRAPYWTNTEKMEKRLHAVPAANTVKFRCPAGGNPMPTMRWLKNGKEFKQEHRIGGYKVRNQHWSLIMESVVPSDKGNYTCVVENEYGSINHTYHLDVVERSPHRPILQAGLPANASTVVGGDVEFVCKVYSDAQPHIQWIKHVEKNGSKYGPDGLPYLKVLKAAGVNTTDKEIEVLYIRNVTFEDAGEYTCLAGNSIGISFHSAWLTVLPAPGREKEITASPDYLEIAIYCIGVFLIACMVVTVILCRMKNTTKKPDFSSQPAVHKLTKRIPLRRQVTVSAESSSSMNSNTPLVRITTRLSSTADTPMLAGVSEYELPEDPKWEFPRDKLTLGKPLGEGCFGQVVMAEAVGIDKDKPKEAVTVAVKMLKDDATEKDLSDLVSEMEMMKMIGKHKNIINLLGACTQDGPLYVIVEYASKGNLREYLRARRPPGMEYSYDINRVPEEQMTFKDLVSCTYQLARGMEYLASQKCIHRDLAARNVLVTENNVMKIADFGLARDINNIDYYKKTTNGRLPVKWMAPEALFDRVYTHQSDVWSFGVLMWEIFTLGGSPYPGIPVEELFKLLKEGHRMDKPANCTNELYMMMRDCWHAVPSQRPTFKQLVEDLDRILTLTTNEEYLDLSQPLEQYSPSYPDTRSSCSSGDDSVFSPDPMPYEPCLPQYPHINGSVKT
Sequence of dephosphorylated FGFR2 (P21802 22-821): as above

What is called IC50 is the concentration that gives 50% inhibition. On to `C=CC(=O)N1C2CC1CN(C(=O)N1CCC(n3cc(-c4cc(OC)c5c(C#N)cnn5c4)cn3)CC1)C2` [Example 1, 6-(1-(1-(6-acryloyl-3,6-diazabicyclo[3.1.1]heptane-3-carbonyl)piperidin-4-yl)-1H-pyrazol-4-yl)-4-methoxypyrazolo[1,5-a]pyridine-3-carbonitrile], for which the IC50 in assay [1] was 525 nM.

The compound `C=CC(=O)N1C2COCC1CN(C(=O)N1CCC(n3cc(-c4cc(OC)c5c(C#N)cnn5c4)cn3)CC1)C2` [Example 3, 6-(1-(1-(9-acryloyl-3-oxa-7,9-diazabicyclo[3.3.1]nonane-7-carbonyl)piperidin-4-yl)-1H-pyrazol-4-yl)-4-methoxypyrazolo[1,5-a]pyridine-3-carbonitrile] gave an IC50 in assay [1] of 870 nM.

In the case of `C=CC(=O)N1CCC(C#N)(C(=O)N2CCC(n3cc(-c4cc(OC)c5c(C#N)cnn5c4)cn3)CC2)C1` (centres unmarked) [Example 31, 6-(1-(1-(1-acryloyl-3-cyanopyrrolidine-3-carbonyl)piperidin-4-yl)-1H-pyrazol-4-yl)-4-methoxypyrazolo[1,5-a]pyridine-3-carbonitrile], the IC50 in assay [1] came out at 247 nM.

`C=CC(=O)N1CC(C(=O)N2CCC(n3cc(-c4cc(OC)c5c(C#N)cnn5c4)cn3)CC2)C1` [Example 36, 6-(1-(1-(1-acryloylazetidine-3-carbonyl)piperidin-4-yl)-1H-pyrazol-4-yl)-4-methoxypyrazolo[1,5-a]pyridine-3-carbonitrile] showed an IC50 in assay [1] of 363 nM.

For the compound `C=CC(=O)N1CC(F)(C(=O)N2CCC(n3cc(-c4cc(OC)c5c(C#N)cnn5c4)cn3)CC2)C1` [Example 37, 6-(1-(1-(1-acryloyl-3-fluoroazetidine-3-carbonyl)piperidin-4-yl)-1H-pyrazol-4-yl)-4-methoxypyrazolo[1,5-a]pyridine-3-carbonitrile], the IC50 at dephosphorylated FGFR2 is 44 nM; in assay [1], 59 nM.

Compound `C=CC(=O)N1CC(C#N)(C(=O)N2CCC(n3cc(-c4cc(OC)c5c(C#N)cnn5c4)cn3)CC2)C1` [Example 39, 6-(1-(1-(1-acryloyl-3-cyanoazetidine-3-carbonyl)piperidin-4-yl)-1H-pyrazol-4-yl)-4-methoxypyrazolo[1,5-a]pyridine-3-carbonitrile] returned an IC50 in assay [1] of 52 nM.

For the compound `C=CC(=O)N1CC(OC)(C(=O)N2CCC(n3cc(-c4cc(OC)c5c(C#N)cnn5c4)cn3)CC2)C1` [Example 41, 6-(1-(1-(1-acryloyl-3-methoxyazetidine-3-carbonyl)piperidin-4-yl)-1H-pyrazol-4-yl)-4-methoxypyrazolo[1,5-a]pyridine-3-carbonitrile], in assay [1], the IC50 was 91 nM.

`C=CC(=O)N1CC(C(=O)N2CCC(n3cc(-c4cc(OC)c5c(C#N)cnn5c4)cn3)CC2)C1C` (centres unmarked) [Example 42, 6-(1-(1-(1-acryloyl-2-methylazetidine-3-carbonyl)piperidin-4-yl)-1H-pyrazol-4-yl)-4-methoxypyrazolo[1,5-a]pyridine-3-carbonitrile] yielded an IC50 in assay [1] of 631 nM.

For the compound `C=CC(=O)N1CC(C(=O)N2CCC(n3cc(-c4cc(OC)c5c(C#N)cnn5c4)cn3)CC2)C1(C)C` (centres unmarked) [Example 43, 6-(1-(1-(1-acryloyl-2,2-dimethylazetidine-3-carbonyl)piperidin-4-yl)-1H-pyrazol-4-yl)-4-methoxypyrazolo[1,5-a]pyridine-3-carbonitrile], the values for the IC50 in assay [1] and in assay [2] were 428 nM and 79 nM, respectively.

Consider `C=CC(=O)N1CC(C(=O)N2C3CCC2CN(c2ccc(-c4cc(OC)c5c(C#N)cnn5c4)cn2)C3)C1` [Example 50, 6-(6-(8-(1-acryloylazetidine-3-carbonyl)-3,8-diazabicyclo[3.2.1]octan-3-yl)pyridin-3-yl)-4-methoxypyrazolo[1,5-a]pyridine-3-carbonitrile], for which the IC50 on dephosphorylated FGFR2 was 14 nM; in assay [1] it was 103 nM; in assay [2], 178 nM.

Regarding `C=CC(=O)N1CC(C(=O)N2CC3CCC(C2)N3c2ccc(-c3cc(OC)c4c(C#N)cnn4c3)cn2)C1` [Example 51, 6-(6-(3-(1-acryloylazetidine-3-carbonyl)-3,8-diazabicyclo[3.2.1]octan-8-yl)pyridin-3-yl)-4-methoxypyrazolo[1,5-a]pyridine-3-carbonitrile], the IC50 is 38 nM on dephosphorylated FGFR2, 198 nM in assay [1] and 433 nM in assay [2].

`C=CC(=O)N1CC(C(=O)N2C3CC2CN(c2ccc(-c4cc(OC)c5c(C#N)cnn5c4)cn2)C3)C1` [Example 52, 6-(6-(6-(1-acryloylazetidine-3-carbonyl)-3,6-diazabicyclo[3.1.1]heptan-3-yl)pyridin-3-yl)-4-methoxypyrazolo[1,5-a]pyridine-3-carbonitrile]: the IC50 on dephosphorylated FGFR2 amounted to 32 nM; in assay [1] it was 759 nM; in assay [2], 766 nM.

In the case of `C=CC(=O)Nc1ccc(C(=O)N2CC[C@@H](n3cc(-c4cc(OC)c5c(C#N)cnn5c4)cn3)C2)cc1` [Example 55, (R)-N-(4-(3-(4-(3-cyano-4-methoxypyrazolo[1,5-a]pyridin-6-yl)-1H-pyrazol-1-yl)pyrrolidine-1-carbonyl)phenyl)acrylamide], the IC50 in assay [1] worked out at 381 nM.

For the compound `C=CC(=O)N1CCC(C(=O)N2CCC(n3ncc(-c4cc(OC)c5c(C#N)cnn5c4)c3C)CC2)CC1` [Example 82, 6-(1-(1-(1-acryloylpiperidine-4-carbonyl)piperidin-4-yl)-5-methyl-1H-pyrazol-4-yl)-4-methoxypyrazolo[1,5-a]pyridine-3-carbonitrile], in assay [1], the midpoint of inhibition, the IC50, lay at 3360 nM.

Consider `C=CC(=O)N1CC[C@@H](C(=O)N2CCC(n3ncc(-c4cc(OC)c5c(C#N)cnn5c4)c3C)CC2)C1` [Example 83, (R)-6-(1-(1-(1-acryloylpyrrolidine-3-carbonyl)piperidin-4-yl)-5-methyl-1H-pyrazol-4-yl)-4-methoxypyrazolo[1,5-a]pyridine-3-carbonitrile], for which the IC50 at dephosphorylated FGFR2 is 17 nM; in assay [1] it was at least 5000 nM.

Take `C=CC(=O)N1CC(C(=O)N2CCC(n3ncc(-c4cc(OC)c5c(C#N)cnn5c4)c3C)CC2)C1` [Example 84, 6-(1-(1-(1-acryloylazetidine-3-carbonyl)piperidin-4-yl)-5-methyl-1H-pyrazol-4-yl)-4-methoxypyrazolo[1,5-a]pyridine-3-carbonitrile]: the half-maximal inhibitory concentration (IC50) on dephosphorylated FGFR2 turned out to be 21 nM; in assay [1], 2530 nM.

For `C=CC(=O)N1CC(C)(C(=O)N2CCC(n3ncc(-c4cc(OC)c5c(C#N)cnn5c4)c3C)CC2)C1` [Example 86, 6-(1-(1-(1-acryloyl-3-methylazetidine-3-carbonyl)piperidin-4-yl)-5-methyl-1H-pyrazol-4-yl)-4-methoxypyrazolo[1,5-a]pyridine-3-carbonitrile], the IC50 on dephosphorylated FGFR2 came out at 12 nM; in assay [1], 2370 nM.

In the case of `C=CC(=O)N1CC(C(=O)N2CCC(n3ncc(-c4cc(OC)c5c(C#N)cnn5c4)c3C)CC2)C1(C)C` (centres unmarked) [Example 87, 6-(1-(1-(1-acryloyl-2,2-dimethylazetidine-3-carbonyl)piperidin-4-yl)-5-methyl-1H-pyrazol-4-yl)-4-methoxypyrazolo[1,5-a]pyridine-3-carbonitrile], the results for the IC50 (on dephosphorylated FGFR2; in assay [1]) were 51 nM and 2350 nM, respectively.

Consider `C=CC(=O)N1CC(CN2CC(n3ncc(-c4cc(OC)c5c(C#N)cnn5c4)c3C)C2)C1` [Example 92], for which, in assay [1], the IC50 stood at 2530 nM.

For `C=CC(=O)N1CC(C)(CN2CC(n3ncc(-c4cc(OC)c5c(C#N)cnn5c4)c3C)C2)C1` [Example 93, 6-(1-(1-((1-acryloyl-3-methylazetidin-3-yl)methyl)azetidin-3-yl)-5-methyl-1H-pyrazol-4-yl)-4-methoxypyrazolo[1,5-a]pyridine-3-carbonitrile], the IC50 in assay [1] came out at 1910 nM.

In assay [1], `C=CC(=O)N1CC(C(=O)N2CCC(n3cc(-c4cc(OC)c5c(C#N)cnn5c4)c(C)n3)CC2)C1` [Example 94, 6-(1-(1-(1-acryloylazetidine-3-carbonyl)piperidin-4-yl)-3-methyl-1H-pyrazol-4-yl)-4-methoxypyrazolo[1,5-a]pyridine-3-carbonitrile] displayed an IC50 of 4500 nM.

For the compound `C=CS(=O)(=O)Nc1cccc(C(=O)N2CCC(n3cc(-c4cc(OC)c5c(C#N)cnn5c4)cn3)CC2)c1` [Example 188, N-(3-(4-(4-(3-cyano-4-methoxypyrazolo[1,5-a]pyridin-6-yl)-1H-pyrazol-1-yl)piperidine-1-carbonyl)phenyl)eth-enesulfonamide], the IC50 in assay [1] turned out to be 134 nM; in assay [2], 160 nM.
